# Measured values as given in ChEMBL document CHEMBL1147645, “Design and synthesis of 2,3,4,9-tetrahydro-1H-carbazole and 1,2,3,4-tetrahydro-cyclopenta[b]indole derivatives as non-nucleoside inhibitors of hepatitis C virus NS5B RNA-dependent RNA polymerase” (Bioorg Med Chem Lett, 2006).
# System: not listed separately
# Experiment: Permeability at pH 7.4 by PAMPA assay
# Format: ADME
# Conditions: read-out: permeability
row,SMILES,Papp
1,CCCC1(C(=O)O)CCc2c1[nH]c1c(Cl)ccc(Cl)c21 (centres undefined),6.48 ×10⁻⁶ cm/s

# Molecular target: RNA-directed RNA polymerase (Hepacivirus hominis, UniProt O39930)
# Experiment: Inhibition of HCV 1b BK NS5B RNA polymerase
# Parameters: species or system Hepatitis C virus (isolate BK)
# Conditions: not given
# RNA-directed RNA polymerase, sequence (O39930 whole entry): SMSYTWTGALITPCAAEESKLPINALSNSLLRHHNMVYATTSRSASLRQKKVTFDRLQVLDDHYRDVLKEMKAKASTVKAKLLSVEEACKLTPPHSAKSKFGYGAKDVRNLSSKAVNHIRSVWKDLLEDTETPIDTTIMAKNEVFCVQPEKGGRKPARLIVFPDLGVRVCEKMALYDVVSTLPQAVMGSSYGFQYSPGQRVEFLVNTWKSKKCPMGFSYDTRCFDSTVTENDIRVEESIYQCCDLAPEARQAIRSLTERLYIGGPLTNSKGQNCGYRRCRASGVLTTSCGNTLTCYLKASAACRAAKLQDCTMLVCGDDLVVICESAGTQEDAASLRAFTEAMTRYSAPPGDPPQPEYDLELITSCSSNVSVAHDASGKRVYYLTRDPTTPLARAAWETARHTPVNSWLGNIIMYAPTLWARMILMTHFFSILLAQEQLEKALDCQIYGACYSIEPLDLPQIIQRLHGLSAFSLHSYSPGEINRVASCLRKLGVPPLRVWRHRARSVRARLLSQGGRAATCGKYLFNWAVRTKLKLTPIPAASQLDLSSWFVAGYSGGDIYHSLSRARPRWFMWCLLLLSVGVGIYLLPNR
row,SMILES,IC50
1,CCCC1(CC(=O)O)CCCc2c1[nH]c1c(C#N)ccc(C#N)c21 (centres undefined),2.3 µM
2,CCCC1(CC(=O)O)CCCc2c1[nH]c1c(F)c(F)ccc21 (centres undefined),> 33 µM
3,CCCC1(CC(=O)O)CCCc2c1[nH]c1cc(F)cc(F)c21 (centres undefined),30 µM
4,CCCC1(C(=O)O)CCc2c1[nH]c1c(C)cc(F)c(C#N)c21 (centres undefined),1.8 µM
5,CCCCC1(C(=O)O)CCc2c1[nH]c1c(C)ccc(C#N)c21 (centres undefined),4.6 µM
6,CCCC1(CC(=O)O)OCCc2c1[nH]c1c(C)ccc(C#N)c21 (centres undefined),0.33 µM
7,CCCC1(CC(=O)O)CCCc2c1[nH]c1ccccc21 (centres undefined),> 33 µM
8,CCCC1(CC(=O)O)CCCc2c1[nH]c1c(C)ccc(C#N)c21 (centres undefined),2.1 µM
9,C=CCC1(C(=O)O)CCc2c1[nH]c1c(C)cc(F)c(C#N)c21 (centres undefined),6.3 µM
10,CCCC1(C(=O)O)CCc2c1[nH]c1c(F)ccc(C#N)c21 (centres undefined),8.1 µM
11,CCCCC1(C(=O)O)CCc2c1[nH]c1c(C)cc(F)c(C#N)c21 (centres undefined),1.5 µM
12,CCCCC1(C(=O)O)CCc2c1[nH]c1c(Cl)ccc(Cl)c21 (centres undefined),1.9 µM
13,C=CCC1(C(=O)O)CCc2c1[nH]c1c(Cl)ccc(Cl)c21 (centres undefined),1.2 µM
14,CCCC1(C(=O)O)CCCc2c1[nH]c1c(C)ccc(C#N)c21 (centres undefined),15 µM
15,CCCC1(CC(=O)O)CCCc2c1[nH]c1ccc(Cl)cc21 (centres undefined),> 33 µM
16,CCCC1(CC(=O)O)CCCc2c1[nH]c1c(Cl)cc(Br)cc21 (centres undefined),> 33 µM
17,CCCC1(C(=O)O)CCc2c1[nH]c1c(C)ccc(C#N)c21 (centres undefined),4.7 µM
18,CCCC1(C(=O)O)CCCc2c1[nH]c1c(Cl)ccc(C(F)(F)F)c21 (centres undefined),5.8 µM
19,CCCC1(C(=O)O)CCCc2c1[nH]c1c(F)ccc(C#N)c21 (centres undefined),10 µM
20,CCCC1(C(=O)O)CCCc2c1[nH]c1c(Cl)ccc(Cl)c21 (centres undefined),3.2 µM
21,CCCC1(CC(=O)O)CCCc2c1[nH]c1c(F)ccc(F)c21 (centres undefined),> 33 µM
22,C=CCC1(C(=O)O)CCc2c1[nH]c1c(C)ccc(C#N)c21 (centres undefined),11 µM
23,CCCC1(CC(=O)O)CCCc2c1[nH]c1c(F)ccc(C#N)c21 (centres undefined),2 µM
24,C=CCC1(C(=O)O)CCc2c1[nH]c1c(F)ccc(C#N)c21 (centres undefined),14.5 µM
25,CCCC1(CC(=O)O)CCCc2c1[nH]c1c(C(N)=O)ccc(C#N)c21 (centres undefined),> 33 µM
26,CCCCC1(C(=O)O)CCc2c1[nH]c1c(F)ccc(C#N)c21 (centres undefined),5.4 µM
27,CCCC1(C(=O)O)CCc2c1[nH]c1c(Cl)ccc(Cl)c21 (centres undefined),0.55 µM

# System: Huh-7
# Experiment: Cytotoxicity against Huh7 cells by MTS assay
# Format: functional, cell-based
# Conditions: Homo sapiens
row,SMILES,IC50
1,CCCC1(C(=O)O)CCc2c1[nH]c1c(Cl)ccc(Cl)c21 (centres undefined),43 µM
